Measurements published in US12570648B2, “6,7-dihydro-5H-pyrido[2,3-c]pyridazine derivatives and related compounds as Bcl-xL protein inhibitors and pro-apoptotic agents for treating cancer” (LES LABORATOIRES SERVIER, priority 2019, dated 2026).

Legend:
MOLT-4 cells = assay: MOLT-4 cell viability using MTT assay; assay type: cell-based; settings: Homo sapiens, MOLT-4, 48 h, 48 h exposure
Procedure: MTT colorimetric assay is based on the mitochondrial reduction of tetrazolium salt by living cells.
Cells were cultured at 37° C. in a humidified atmosphere containing 5% CO2. […] At the end of incubation time, 15 μL of MTT solution (5 mg/ml) were added per well and the cells were incubated for another 4 h. […] IC50s were calculated using standard four-parametric curve fitting.

H146 cells = assay: H146 cell viability using MTT assay; assay type: cell-based; settings: Homo sapiens, NCI-H146, 48 h exposure
Procedure, shortened: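 Cells were cultured in RPMI 1640 with 10% heat-inactivated FBS, penicillin/streptomycin and 2 mM L-glutamine, then exposed 48 h to 9 concentrations (3.16-fold series, triplicates). MTT was added for 4 h and formazan solubilised overnight in SDS/HCl. OD was read at 540 nm and IC50 fitted with four-parameter curves.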

[1] = target: GST(1-218)-(FACTOR_XA)-hsBCLXL(2-209) (Homo sapiens (Human), UniProt Q07817); assay: Fluorescence polarisation assay; assay type: binding
Sequence of GST(1-218)-(FACTOR_XA)-hsBCLXL(2-209) (Q07817 other isoform, or with tags, fused parts or gaps): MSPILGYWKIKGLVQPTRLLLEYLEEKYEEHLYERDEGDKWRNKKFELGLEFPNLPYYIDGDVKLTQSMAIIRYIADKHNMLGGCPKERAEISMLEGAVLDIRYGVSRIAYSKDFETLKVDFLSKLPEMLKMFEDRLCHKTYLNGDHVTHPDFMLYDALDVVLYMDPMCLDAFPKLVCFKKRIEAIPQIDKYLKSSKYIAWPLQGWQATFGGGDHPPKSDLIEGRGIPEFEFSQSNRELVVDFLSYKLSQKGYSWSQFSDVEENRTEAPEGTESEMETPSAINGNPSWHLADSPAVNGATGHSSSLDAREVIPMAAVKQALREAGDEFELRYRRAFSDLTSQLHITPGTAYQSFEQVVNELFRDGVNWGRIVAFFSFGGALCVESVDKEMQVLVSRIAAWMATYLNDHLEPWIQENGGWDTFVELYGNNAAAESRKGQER
Procedure: Fluorescence polarization measures the rotation of a fluorescing species in solution, the larger the molecule the more polarized the fluorescence emission.
(GST UniProtKB® primary accession number P08515 and BCLXL UniProtKB® primary accession number Q07817-1), • resulting in an increase in anisotropy. If a compound is added which competitively binds to the same site as the probe, thereby releasing it, anisotropy decreases due to the increased amount of free probe.
An 11-point serial dilution of each compound was prepared in DMSO, the final buffer conditions were 10 mM 4-(2-hydroxyethyl)-1-piperazineethanesulfonic acid [HEPES], 150 mM NaCl, 0.05% Tween 20, pH 7.4 and 5% DMSO. The final protein concentration in the assay was 20 nM with the fluorescent probe present at 10 nM. […] 1; 37 (WebServer issue): W441-W445.

[2] = target: His-His-(EK)-hsBCLXL(2-197)[N197C] (Homo sapiens (Human), UniProt Q07817, N197C); assay: Fluorescence quenching assay; assay type: binding; settings: 1 nM Cy5-labelled protein, 400 nM PUMA peptide, 2 hours at 23° C.; KI determined from IC50
Sequence of His-His-(EK)-hsBCLXL(2-197)[N197C] (Q07817 2-197 N197C): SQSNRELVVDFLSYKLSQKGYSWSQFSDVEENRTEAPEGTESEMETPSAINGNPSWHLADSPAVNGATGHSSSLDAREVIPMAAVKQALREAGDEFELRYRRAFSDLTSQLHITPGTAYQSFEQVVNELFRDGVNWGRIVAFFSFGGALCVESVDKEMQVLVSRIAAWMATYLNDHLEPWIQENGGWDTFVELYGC
Procedure, shortened: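 Cy5-labelled BCL-xL (1 nM) with TQ5WS quencher-labelled PUMA peptide (400 nM); displacement by compound (11-point dilution) raises fluorescence. Buffer 10 mM HEPES, 150 mM NaCl, 0.05% Tween 20, pH 7.4, 5% DMSO; 2 h at 23° C, Ex 620/Em 680 nm. Ki derived from IC50.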

Molt-4 = settings: xenograft model Molt-4; cited from earlier work
[3] = system: pre-clinical models of T-ALL and different types of solid tumors; settings: cited from earlier work

Row | IC50 (MOLT-4 cells) [nM] | IC50 (H146 cells) [nM] | Ki [1] [nM] | Ki [2] [nM] | Structure (SMILES) | in vitro and in vivo activity (Molt-4) | in vivo activity [3]
1 | 4230 | > 15000 | 1600 |  | Cc1c(Nc2nc3ccccc3s2)nnc2c1CCCN2c1cccc(C(=O)O)n1 [Example 21, 6-{3-[(1,3-Benzothiazol-2-yl)amino]-4-methyl-5H,6H,7H,8H-pyrido[2,3-c]pyridazin-8-yl}pyridine-2-carboxylic acid] |  | 
2 |  | 5.51 | < 1 | 0.0017 | Cc1c(Nc2nc3ccccc3s2)nnc2c1CCCN2c1nc(C(=O)O)c(CCCOc2ccc(CCCN(C)C)cc2F)s1 [Example 36, 2-{3-[(1,3-Benzothiazol-2-yl)amino]-4-methyl-5H,6H,7H,8H-pyrido[2,3-c]pyridazin-8-yl}-5-(3-{4-[3-(dimethylamino)propyl]-2-fluorophenoxy}propyl)-1,3-thiazole-4-carboxylic acid] |  | 
3 | 162 | 3100 | 85 |  | Cc1c(Nc2nc3ccccc3s2)nnc2c1CCN2c1cccc(C(=O)O)n1 [Example 20, 6-{3-[(1,3-Benzothiazol-2-yl)amino]-4-methyl-5H,6H,7H-pyrrolo[2,3-c]pyridazin-7-yl}pyridine-2-carboxylic acid] |  | 
4 | 0.987 |  | < 1 | 0.0046 | CNCC#Cc1ccc(OCCCc2sc(N3CCCc4c3nnc(Nc3nc5ccccc5s3)c4C)nc2C(=O)O)c(F)c1 [Example 32, 2-{3-[(1,3-Benzothiazol-2-yl)amino]-4-methyl-5H,6H,7H,8H-pyrido[2,3-c]pyridazin-8-yl}-5-(3-{2-fluoro-4-[3-(methylamino)prop-1-yn-1-yl]phenoxy}propyl)-1,3-thiazole-4-carboxylic acid] |  | 
5 |  | 2340 | 13 |  | O=C(O)c1nc(-n2ccc3cc(Nc4nc5ccccc5s4)nnc32)sc1CCCOc1ccccc1F [Example 9, 2-{3-[(1,3-Benzothiazol-2-yl)amino]-7H-pyrrolo[2,3-c]pyridazin-7-yl}-5-[3-(2-fluorophenoxy)propyl]-1,3-thiazole-4-carboxylic acid] |  | 
6 | 3.42 | 12.7 | 3 | 0.025 | Cc1c(Nc2nc3ccccc3s2)nnc2c1CCN2c1nc(C(=O)O)c(CCCOc2ccc(C#CCN(C)C)cc2F)s1 [Example 22, 2-{3-[(1,3-Benzothiazol-2-yl)amino]-4-methyl-5H,6H,7H-pyrrolo[2,3-c]pyridazin-7-yl}-5-(3-{4-[3-(dimethylamino)prop-1-yn-1-yl]-2-fluorophenoxy}propyl)-1,3-thiazole-4-carboxylic acid] |  | 
7 | 0.948 | 2.77 | 1.1 | 0.051 | Cc1c(Nc2nc3ccccc3s2)nnc2c1ccn2-c1ccc(-c2cnn(CC34CC5CC(CC(C5)C3)C4)c2C)c(C(=O)O)n1 [Example 23] |  | 
8 | 30.2 | 62.8 | < 1 | 0.0077 | Cc1c(Nc2nc3ccccc3s2)nnc2c1CCCN2c1nc(C(=O)O)c(CCCOc2ccc(CN)cc2F)s1 [Example 35, 5-{3-[4-(Aminomethyl)-2-fluorophenoxy]propyl}-2-{3-[(1,3-benzothiazol-2-yl)amino]-4-methyl-5H,6H,7H,8H-pyrido[2,3-c]pyridazin-8-yl}-1,3-thiazole-4-carboxylic acid] |  | 
9 |  | 6.53 | < 1 | 0.0085 | Cc1c(Nc2nc3ccccc3s2)nnc2c1CCCN2c1nc(C(=O)O)c(CCCOc2ccc(C#CCN(C)C)cc2F)s1 [Example 27, 2-[3-(1,3-Benzothiazol-2-ylamino)-4-methyl-6,7-dihydro-5H-pyrido[2,3-c]pyridazin-8-yl]-5-[3-[4-[3-(dimethylamino)prop-1-ynyl]-2-fluoro-phenoxy]propyl]thiazole-4-carboxylic acid] |  | 
10 | 128 | 393 | 2 |  | COCCCC1(Cn2ncc(-c3sc(N4CCc5c4nnc(Nc4nc6ccccc6s4)c5C)nc3C(=O)O)c2C)CCCCC1 [Example 17, 2-{3-[(1,3-Benzothiazol-2-yl)amino]-4-methyl-5H,6H,7H-pyrrolo[2,3-c]pyridazin-7-yl}-5-(1-{[1-(3-methoxypropyl)cyclohexyl]methyl}-5-methyl-1H-pyrazol-4-yl)-1,3-thiazole-4-carboxylic acid] |  | 
11 | 14.8 | 88.2 | < 1 | 0.0082 | Cc1c(Nc2nc3ccccc3s2)nnc2c1CCCCN2c1nc(C(=O)O)c(CCCOc2ccc(C#CCN(C)C)cc2F)s1 [Example 31, 2-{3-[(1,3-Benzothiazol-2-yl)amino]-4-methyl-5H,6H,7H,8H,9H-pyridazino[3,4-b]azepin-9-yl}-5-(3-{4-[3-(dimethylamino)prop-1-yn-1-yl]-2-fluorophenoxy}propyl)-1,3-thiazole-4-carboxylic acid] |  | 
12 | 880 | 3140 | 14 |  | O=C(O)c1csc(N2CCc3c2nnc(Nc2nc4ccccc4s2)c3C2CC2)n1 [Example 28, 2-{3-[(1,3-Benzothiazol-2-yl)amino]-4-cyclopropyl-5H,6H,7H-pyrrolo[2,3-c]pyridazin-7-yl}-1,3-thiazole-4-carboxylic acid] |  | 
13 |  |  | 5.5 | 1.4 | Cc1c(Nc2nc3ccccc3s2)nnc2c1C[C@@H](O)CN2c1nc(C(=O)O)cs1 [Example 33, 2-[(6R)-3-[(1,3-Benzothiazol-2-yl)amino]-6-hydroxy-4-methyl-5H,6H,7H,8H-pyrido[2,3-c]pyridazin-8-yl]-1,3-thiazole-4-carboxylic acid] |  | 
14 | 0.775 | 6.55 | < 1 | 0.0036 | CN(C)CC#Cc1ccc(OCCCc2sc(N3CCCc4c3nnc(Nc3nc5ccccc5s3)c4C3CC3)nc2C(=O)O)c(F)c1 [Example 30, 2-{3-[(1,3-Benzothiazol-2-yl)amino]-4-cyclopropyl-5H,6H,7H,8H-pyrido[2,3-c]pyridazin-8-yl}-5-(3-{4-[3-(dimethylamino)prop-1-yn-1-yl]-2-fluorophenoxy}propyl)-1,3-thiazole-4-carboxylic acid] |  | 
15 | ≥ 13400 | > 15000 | 15000 |  | Cc1c(Nc2nc3ccccc3s2)nnc2c1CCCN2c1cccc(C(=O)O)c1 [Example 26, 3-{3-[(1,3-Benzothiazol-2-yl)amino]-4-methyl-5H,6H,7H,8H-pyrido[2,3-c]pyridazin-8-yl}benzoic acid] |  | 
16 |  |  |  |  | Cc1c(-c2ccc(N3CCc4cccc(C(=O)Nc5nc6ccccc6s5)c4C3)nc2C(=O)O)cnn1CC12CC3CC(CC(C3)C1)C2 [Example A-1331852] | in vitro and in vivo activity | exhibited in vivo activity
17 | 1050 | 2600 | 2.3 |  | Cc1c(Nc2nc3ccccc3s2)nnc2c1CCCN2c1nc(C(=O)O)cs1 [Example 15, 2-{3-[(1,3-Benzothiazol-2-yl)amino]-4-methyl-5H,6H,7H,8H-pyrido[2,3-c]pyridazin-8-yl}-1,3-thiazole-4-carboxylic acid] |  | 
18 | 126 | 790 | 9.2 |  | Cc1c(Nc2nc3ccccc3s2)nnc2c1CCN2c1nc(C(=O)O)c(-c2cnn(CC34CC5CC(CC(C5)C3)C4)c2C)s1 [Example 13, 5-{1-[(Adamantan-1-yl)methyl]-5-methyl-1H-pyrazol-4-yl}-2-{3-[(1,3-benzothiazol-2-yl)amino]-4-methyl-5H,6H,7H-pyrrolo[2,3-c]pyridazin-7-yl}-1,3-thiazole-4-carboxylic acid] |  | 
19 | 453 | 3080 | 5.5 |  | COCCCC1(Cn2ncc(-c3sc(N4CCc5c4nnc(Nc4nc6ccccc6s4)c5C)nc3C(=O)O)c2C)CCCCCCC1 [Example 14, 2-{3-[(1,3-Benzothiazol-2-yl)amino]-4-methyl-5H,6H,7H-pyrrolo[2,3-c]pyridazin-7-yl}-5-(1-{[1-(3-methoxypropyl)cyclooctyl]methyl}-5-methyl-1H-pyrazol-4-yl)-1,3-thiazole-4-carboxylic acid] |  | 
20 |  |  |  |  | CN(C)CC#Cc1ccc(OCCCc2sc(N3CCc4cccc(C(=O)Nc5nc6ccccc6s5)c4C3)nc2C(=O)O)c(F)c1 [Example A-1155463] |  | exhibited in vivo activity
21 | > 15000 | > 15000 | 210 |  | O=C(O)c1csc(N2CCc3cc(Nc4nc5ccccc5s4)nnc32)n1 [Example 10, 2-{3-[(1,3-Benzothiazol-2-yl)amino]-5H,6H,7H-pyrrolo[2,3-c]pyridazin-7-yl}-1,3-thiazole-4-carboxylic acid] |  | 
